Test results published in PMC6946680, “Modulation of brain cation-Cl^− cotransport via the SPAK kinase inhibitor ZT-1a” (Nature Communications, 2020).

What was measured:
Assay in all cases: Kinase profiling panel
Type in all cases: biochemical
ZAP70 = tested on: ZAP70
Protocol: (§1) Supplementary Table 2. ZT-1a kinase profiling data6.
(§2) ZT-1a was tested at 10 and 1 µM against a panel of 140 recombinant kinases in an enzymatic
(§3) activity-based assay performed by the International Centre for Kinase Profiling in the MRC
(§4) Protein Phosphorylation and Ubiquitylation Unit. Values represent % residual kinase activity

EF2K = tested on: EF2K
Protocol: as §1, §2, §3, §4

p38g MAPK = tested on: p38g MAPK
Protocol: as §1, §2, §3, §4

DYRK3 = tested on: DYRK3
Protocol: as §1, §2, §3, §4

CK1δ = tested on: CK1δ
Protocol: as §1, §2, §3, §4

FGF-R1 = tested on: FGF-R1
Protocol: as §1, §2, §3, §4

ABL = tested on: ABL
Protocol: as §1, §2, §3, §4

p38d MAPK = tested on: p38d MAPK
Protocol: as §1, §2, §3, §4

CAMK1 = tested on: CAMK1
Protocol: as §1, §2, §3, §4

MKK1 = tested on: MKK1
Protocol: as §1, §2, §3, §4

MLK3 = tested on: MLK3
Protocol: as §1, §2, §3, §4

IRAK4 = tested on: IRAK4
Protocol: as §1, §2, §3, §4

ERK1 = tested on: ERK1
Protocol: as §1, §2, §3, §4

PKCz = tested on: PKCz
Protocol: as §1, §2, §3, §4

MNK1 = tested on: MNK1
Protocol: as §1, §2, §3, §4

NEK6 = tested on: NEK6
Protocol: as §1, §2, §3, §4

PINK = tested on: PINK
Protocol: as §1, §2, §3, §4

SmMLCK = tested on: SmMLCK
Protocol: as §1, §2, §3, §4

BRK = tested on: BRK
Protocol: as §1, §2, §3, §4

NEK2a = tested on: NEK2a
Protocol: as §1, §2, §3, §4

JNK1 = tested on: JNK1
Protocol: as §1, §2, §3, §4

MST3 = tested on: MST3
Protocol: as §1, §2, §3, §4

PKA = tested on: PKA
Protocol: as §1, §2, §3, §4

PIM2 = tested on: PIM2
Protocol: as §1, §2, §3, §4

CAMKKb = tested on: CAMKKb
Protocol: as §1, §2, §3, §4

TBK1 = tested on: TBK1
Protocol: as §1, §2, §3, §4

TrkA = tested on: TrkA
Protocol: as §1, §2, §3, §4

MST2 = tested on: MST2
Protocol: as §1, §2, §3, §4

MINK1 = tested on: MINK1
Protocol: as §1, §2, §3, §4

EPH-B3 = tested on: EPH-B3
Protocol: as §1, §2, §3, §4

Lck = tested on: Lck
Protocol: as §1, §2, §3, §4

ASK1 = tested on: ASK1
Protocol: as §1, §2, §3, §4

ULK1 = tested on: ULK1
Protocol: as §1, §2, §3, §4

EPH-B2 = tested on: EPH-B2
Protocol: as §1, §2, §3, §4

PKCa = tested on: PKCa
Protocol: as §1, §2, §3, §4

PAK4 = tested on: PAK4
Protocol: as §1, §2, §3, §4

PKBa = tested on: PKBa
Protocol: as §1, §2, §3, §4

Src = tested on: Src
Protocol: as §1, §2, §3, §4

LKB1 = tested on: LKB1
Protocol: as §1, §2, §3, §4

PAK2 = tested on: PAK2
Protocol: as §1, §2, §3, §4

MNK2 = tested on: MNK2
Protocol: as §1, §2, §3, §4

RIPK2 = tested on: RIPK2
Protocol: as §1, §2, §3, §4

PRK2 = tested on: PRK2
Protocol: as §1, §2, §3, §4

Cc1cc(C(C#N)c2ccc(Cl)cc2)c(Cl)cc1NC(=O)c1cc(Cl)ccc1O (centres unmarked) [ZT-1a, 5-chloro-N-(5-chloro-4-((4-chlorophenyl)(cyano)methyl)-2-methylphenyl)-2-hydroxybenzamide]
% residual kinase activity (ZAP70; 1 µM): 120±1%
% residual kinase activity (ZAP70; 10 µM): 97±9%
% residual kinase activity (EF2K; 1 µM): 104±13%
% residual kinase activity (EF2K; 10 µM): 56±2%
% residual kinase activity (p38g MAPK; 1 µM): 100±11%
% residual kinase activity (p38g MAPK; 10 µM): 100±6%
% residual kinase activity (DYRK3; 1 µM): 113±6%
% residual kinase activity (DYRK3; 10 µM): 56±15%
% residual kinase activity (CK1δ; 1 µM): 116±5%
% residual kinase activity (CK1δ; 10 µM): 114±9%
% residual kinase activity (FGF-R1; 1 µM): 93±6%
% residual kinase activity (FGF-R1; 10 µM): 101±15%
% residual kinase activity (ABL; 1 µM): 85±4%
% residual kinase activity (ABL; 10 µM): 68±16%
% residual kinase activity (p38d MAPK; 1 µM): 95±1%
% residual kinase activity (p38d MAPK; 10 µM): 112±2%
% residual kinase activity (CAMK1; 1 µM): 60±5%
% residual kinase activity (CAMK1; 10 µM): 71±31%
% residual kinase activity (MKK1; 1 µM): 106±2%
% residual kinase activity (MKK1; 10 µM): 114±17%
% residual kinase activity (MLK3; 1 µM): 119±11%
% residual kinase activity (MLK3; 10 µM): 114±3%
% residual kinase activity (IRAK4; 1 µM): 127±0%
% residual kinase activity (IRAK4; 10 µM): 127±11%
% residual kinase activity (ERK1; 1 µM): 107±16%
% residual kinase activity (ERK1; 10 µM): 109±18%
% residual kinase activity (PKCz; 1 µM): 80±11%
% residual kinase activity (PKCz; 10 µM): 122±28%
% residual kinase activity (MNK1; 1 µM): 78±19%
% residual kinase activity (MNK1; 10 µM): 87±2%
% residual kinase activity (NEK6; 1 µM): 107±6%
% residual kinase activity (NEK6; 10 µM): 108±1%
% residual kinase activity (PINK; 1 µM): 101±13%
% residual kinase activity (PINK; 10 µM): 59±4%
% residual kinase activity (SmMLCK; 1 µM): 99±3%
% residual kinase activity (SmMLCK; 10 µM): 98±9%
% residual kinase activity (BRK; 1 µM): 116±12%
% residual kinase activity (BRK; 10 µM): 103±2%
% residual kinase activity (NEK2a; 1 µM): 85±12%
% residual kinase activity (NEK2a; 10 µM): 91±6%
% residual kinase activity (JNK1; 1 µM): 106±4%
% residual kinase activity (JNK1; 10 µM): 110±5%
% residual kinase activity (MST3; 1 µM): 109±8%
% residual kinase activity (MST3; 10 µM): 113±15%
% residual kinase activity (PKA; 1 µM): 80±11%
% residual kinase activity (PKA; 10 µM): 50±2%
% residual kinase activity (PIM2; 1 µM): 93±5%
% residual kinase activity (PIM2; 10 µM): 93±3%
% residual kinase activity (CAMKKb; 1 µM): 115±10%
% residual kinase activity (CAMKKb; 10 µM): 102±9%
% residual kinase activity (TBK1; 1 µM): 119±10%
% residual kinase activity (TBK1; 10 µM): 94±3%
% residual kinase activity (TrkA; 1 µM): 108±9%
% residual kinase activity (TrkA; 10 µM): 91±7%
% residual kinase activity (MST2; 1 µM): 115±4%
% residual kinase activity (MST2; 10 µM): 113±2%
% residual kinase activity (MINK1; 1 µM): 107±5%
% residual kinase activity (MINK1; 10 µM): 108±6%
% residual kinase activity (EPH-B3; 1 µM): 88±6%
% residual kinase activity (EPH-B3; 10 µM): 84±6%
% residual kinase activity (Lck; 1 µM): 112±13%
% residual kinase activity (Lck; 10 µM): 127±14%
% residual kinase activity (ASK1; 1 µM): 101±3%
% residual kinase activity (ASK1; 10 µM): 100±11%
% residual kinase activity (ULK1; 1 µM): 87±10%
% residual kinase activity (ULK1; 10 µM): 89±13%
% residual kinase activity (EPH-B2; 1 µM): 77±2%
% residual kinase activity (EPH-B2; 10 µM): 81±8%
% residual kinase activity (PKCa; 1 µM): 97±4%
% residual kinase activity (PKCa; 10 µM): 83±2%
% residual kinase activity (PAK4; 1 µM): 81±16%
% residual kinase activity (PAK4; 10 µM): 51±3%
% residual kinase activity (PKBa; 1 µM): 104±1%
% residual kinase activity (PKBa; 10 µM): 91±4%
% residual kinase activity (Src; 1 µM): 107±4%
% residual kinase activity (Src; 10 µM): 84±13%
% residual kinase activity (LKB1; 1 µM): 107±8%
% residual kinase activity (LKB1; 10 µM): 115±11%
% residual kinase activity (PAK2; 1 µM): 110±4%
% residual kinase activity (PAK2; 10 µM): 93±8%
% residual kinase activity (MNK2; 1 µM): 100±7%
% residual kinase activity (MNK2; 10 µM): 105±3%
% residual kinase activity (RIPK2; 1 µM): 128±5%
% residual kinase activity (RIPK2; 10 µM): 120±3%
% residual kinase activity (PRK2; 1 µM): 118±4%
% residual kinase activity (PRK2; 10 µM): 120±7%
